From patent publication US20120028990A1, “3 ARYL OR HETEROARYL-SUBSTITUTED INDOLE DERIVATIVE” (MSD K.K, priority 2010, published 2012)

biological target: T1, human QRFP receptor (GPR103) (Homo sapiens, UniProt Q96P65); assay: QRFP43-binding inhibitory test; settings: inhibition of specific [125I]QRFP43 binding; membranes of CHO-K1 cells expressing GPR103; 25° C., 1 hour
T1 construct: expressed in transfected cells; host or cells: CHO-K1 NFAT beta-lactamase (Aurora); membrane sample
T1 sequence (Q96P65 1-431): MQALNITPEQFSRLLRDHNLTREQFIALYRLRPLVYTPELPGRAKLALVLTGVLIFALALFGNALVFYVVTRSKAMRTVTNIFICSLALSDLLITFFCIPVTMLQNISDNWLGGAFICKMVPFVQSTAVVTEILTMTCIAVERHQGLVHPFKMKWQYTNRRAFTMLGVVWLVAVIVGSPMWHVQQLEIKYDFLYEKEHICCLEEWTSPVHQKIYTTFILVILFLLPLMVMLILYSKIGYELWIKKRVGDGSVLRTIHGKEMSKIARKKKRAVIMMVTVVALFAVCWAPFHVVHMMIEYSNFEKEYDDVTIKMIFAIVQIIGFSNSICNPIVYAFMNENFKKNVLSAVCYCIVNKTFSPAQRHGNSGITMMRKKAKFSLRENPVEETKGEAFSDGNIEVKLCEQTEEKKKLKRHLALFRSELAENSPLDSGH
Description: A cDNA sequence [Accession No. NM_198179] coding for a human QRFP receptor (GPR103) was cloned in an expression vector pEF1V5-HisB (by Invitrogen). The resulting expression vector was transfected in a host cell CHO-K1 NFAT (3-Lactamase (by Aurora), according to a cationic lipid process [see Proceedings of the National Academy of Sciences of the United States of America, Vol. 84, p. 7413, 1987], thereby producing a QRFP receptor (GPR103).
A membrane sample prepared from the cells having expressed a QRFP receptor (GPR103) was incubated in an assay buffer (50 mM Tris-HCl, 1 mM EDTA and 0.1% BSA, pH 7.4) along with a test compound and 20,000 cpm [^125I] QRFP43 (by Perkin Elmer) therein, at 25° C. for 1 hour, and then filtered through a glass filter GF/C. After washed with 50 mM Tris-HCl (containing 2 mM EDTA, 10 mM MgCl2 and 0.04% Tween-20) buffer (pH 7.4), the radioactivity on the glass filter was determined. The non-specific binding was determined in the presence of 1 μM peptide QRFP43, and the 50% inhibitory concentration (IC50) of the test compound to the specific [^125I] QRFP43 binding was computed [see Endocrinology, Vol. 131, p. 2090, 1992].

SMILES | IC50 [nM]
CN1CCN(CCNC(=O)c2[nH]c3ccc(Cl)cc3c2-c2ccoc2)CC1 [Example 1, 5-chloro-3-(3-fury)-N-[2-(4-methylpiperazin-1-yl)ethyl]-1H-indole-2-carboxamide] | 2.26
CN1CCN(CCNC(=O)c2[nH]c3ccc(Cl)cc3c2-c2ccsc2)CC1 [Example 2, 5-chloro-N-[2-(4-methylpiperazin-1-yl)ethyl]-3-(3-thienyl)-1H-indole-2-carboxamide] | 4.71
CN1CCN(CCNC(=O)c2[nH]c3ccc(Cl)cc3c2-c2cccs2)CC1 [Example 3, 5-chloro-N-[2-(4-methylpiperazin-1-yl)ethyl]-3-(2-thienyl)-1H-indole-2-carboxamide] | 4.68
CN1CCN(CCNC(=O)c2[nH]c3ccc(Cl)cc3c2-c2cscn2)CC1 [Example 4, 5-chloro-N-[2-(4-methylpiperazin-1-yl)ethyl]-3-(1,3-thiazol-4-yl)-1H-indole-2-carboxamide] | 14.2

Continued, values first:

IC50 [nM] | SMILES
0.58 | O=C(NCCCCC(c1ccco1)N1CCCC1)c1[nH]c2ccc(Cl)cc2c1-c1ccoc1 (racemic) [Example 8, 5-chloro-3-(3-fury)-N-[5-(2-furyl)-5-pyrrolidin-1-ylpentyl]-1H-indole-2-carboxamide]
9.82 | CN1CC[C@H]2C[C@H](NC(=O)c3[nH]c4ccc(Cl)cc4c3-c3ccoc3)CC[C@@H]2C1 (single isomer, unassigned) [Example 7, 5-chloro-3-(3-fury)-N-(2-methyldecahydroisoquinolin-6-yl)-1H-indole-2-carboxamide]
1.06 | CNC(CCCCNC(=O)c1[nH]c2ccccc2c1-c1ccoc1)c1ccccn1 (single isomer, unassigned) [Example 9, 3-(3-fury)-N-[5-(methylamino)-5-pyridin-2-ylpentyl]-1H-indole-2-carboxamide]
22.6 | CN1CC[C@H]2C[C@H](NC(=O)c3cc4cc(Cl)ccc4n3C)CC[C@@H]2C1 (single isomer, unassigned) [Reference example 1, 5-chloro-1-methyl-N-(2-methyldecahydroisoquinolin-6-yl)-1H-indole-2-carboxamide]
11.4 | CN1CCN(CCNC(=O)c2[nH]c3ccc(Cl)cc3c2-c2ccccc2)CC1 [Example 5, 5-chloro-N-[2-(4-methylpiperazin-1-yl)ethyl]-3-phenyl-1H-indole-2-carboxamide]
6.24 | CN1CCC(CCNC(=O)c2[nH]c3ccc(Cl)cc3c2-c2ccoc2)CC1 [Example 6, 5-chloro-3-(3-fury)-N-[2-(1-methylpiperidin-4-yl)ethyl]-1H-indole-2-carboxamide]
